Assay results from ChEMBL document CHEMBL1909294, “Translating clinical findings into knowledge in drug safety evaluation--drug induced liver injury prediction system (DILIps)” (PLoS Comput Biol, 2011).

How the values were obtained:
Hepatotoxicity [1] = system: Hepatotoxicity;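 as to HepSE bilirubinemia: bilirubinemia hepatic side effect score drawn from the DILIps training data, a prediction system for drug-induced liver injury; call rule not given here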;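 as to HepSE cholecystitis: Cholecystitis-related hepatic side effect score drawn from the DILIps (drug-induced liver injury prediction) training data set; call rule not given here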;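 as to HepSE cholelithiasis: hepatic side effect score for cholelithiasis, drawn from the DILIps training data for predicting drug-induced liver injury; call rule not given here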;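 as to HepSE cirrhosis: cirrhosis hepatic side effect score taken from the DILIps (drug-induced liver injury prediction) training set; call rule not given here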;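 as to HepSE elevated liver function tests: hepatic side effect score for raised liver function tests, as recorded in the DILIps training set used for predicting drug-induced liver injury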; as to HepSE hepatic failure: call rule not given here;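 as to HepSE hepatomegaly: hepatic side effect score for hepatomegaly, taken from the training set of the DILIps drug-induced liver injury prediction system; call rule not given here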
Hepatotoxicity [2] = system: Hepatotoxicity; remark: listed apart in the source;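 as to HepSE bilirubinemia: bilirubinemia hepatic side effect score drawn from the DILIps training data, a prediction system for drug-induced liver injury; call rule not given here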;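 as to HepSE cholecystitis: Cholecystitis-related hepatic side effect score drawn from the DILIps (drug-induced liver injury prediction) training data set; call rule not given here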;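 as to HepSE cholelithiasis: hepatic side effect score for cholelithiasis, drawn from the DILIps training data for predicting drug-induced liver injury; call rule not given here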;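 as to HepSE cirrhosis: cirrhosis hepatic side effect score taken from the DILIps (drug-induced liver injury prediction) training set; call rule not given here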;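 as to HepSE elevated liver function tests: hepatic side effect score for raised liver function tests, as recorded in the DILIps training set used for predicting drug-induced liver injury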; as to HepSE hepatic failure: call rule not given here
Hepatotoxicity [3] = system: Hepatotoxicity; remark: listed apart in the source;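 as to HepSE bilirubinemia: bilirubinemia hepatic side effect score drawn from the DILIps training data, a prediction system for drug-induced liver injury; call rule not given here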;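 as to HepSE cholecystitis: Cholecystitis-related hepatic side effect score drawn from the DILIps (drug-induced liver injury prediction) training data set; call rule not given here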;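 as to HepSE cholelithiasis: hepatic side effect score for cholelithiasis, drawn from the DILIps training data for predicting drug-induced liver injury; call rule not given here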;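 as to HepSE cirrhosis: cirrhosis hepatic side effect score taken from the DILIps (drug-induced liver injury prediction) training set; call rule not given here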;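 as to HepSE elevated liver function tests: hepatic side effect score for raised liver function tests, as recorded in the DILIps training set used for predicting drug-induced liver injury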; as to HepSE hepatic failure: call rule not given here
Hepatotoxicity [4] = system: Hepatotoxicity; remark: listed apart in the source;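 as to HepSE bilirubinemia: bilirubinemia hepatic side effect score drawn from the DILIps training data, a prediction system for drug-induced liver injury; call rule not given here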;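 as to HepSE cholecystitis: Cholecystitis-related hepatic side effect score drawn from the DILIps (drug-induced liver injury prediction) training data set; call rule not given here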;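 as to HepSE cholelithiasis: hepatic side effect score for cholelithiasis, drawn from the DILIps training data for predicting drug-induced liver injury; call rule not given here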;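 as to HepSE cirrhosis: cirrhosis hepatic side effect score taken from the DILIps (drug-induced liver injury prediction) training set; call rule not given here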;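 as to HepSE elevated liver function tests: hepatic side effect score for raised liver function tests, as recorded in the DILIps training set used for predicting drug-induced liver injury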; as to HepSE hepatic failure: call rule not given here
Hepatotoxicity [5] = system: Hepatotoxicity; remark: listed apart in the source; as to HepSE hepatic failure: call rule not given here
Hepatotoxicity [6] = system: Hepatotoxicity; remark: listed apart in the source; as to HepSE hepatic failure: call rule not given here
Hepatotoxicity [7] = system: Hepatotoxicity; remark: listed apart in the source
Hepatotoxicity [8] = system: Hepatotoxicity; remark: listed apart in the source
Hepatotoxicity [9] = system: Hepatotoxicity; remark: listed apart in the source
Hepatotoxicity [10] = system: Hepatotoxicity; remark: listed apart in the source
Hepatotoxicity [11] = system: Hepatotoxicity; remark: listed apart in the source
Hepatotoxicity [12] = system: Hepatotoxicity; remark: listed apart in the source
Hepatotoxicity [13] = system: Hepatotoxicity; remark: listed apart in the source
Hepatotoxicity [14] = system: Hepatotoxicity; remark: listed apart in the source

CCOC(=O)[C@H](CCc1ccccc1)N[C@@H](C)C(=O)N1[C@H](C(=O)O)C[C@@H]2CCC[C@@H]21
4: HepSE_Combined Scores (Hepatotoxicity [14])
0: HepSE_bilirubinemia (Hepatotoxicity [1]) | HepSE_cholecystitis (Hepatotoxicity [2]) | HepSE_cholelithiasis (Hepatotoxicity [3]) | HepSE_cirrhosis (Hepatotoxicity [4]) | HepSE_elevated liver function tests (Hepatotoxicity [5]) | HepSE_hepatomegaly (Hepatotoxicity [9]) | HepSE_liver disease (Hepatotoxicity [11]) | HepSE_liver fatty (Hepatotoxicity [12]) | HepSE_liver function tests abnormal (Hepatotoxicity [13])
1: HepSE_hepatic failure (Hepatotoxicity [6]) | HepSE_hepatic necrosis (Hepatotoxicity [7]) | HepSE_hepatitis (Hepatotoxicity [8]) | HepSE_jaundice (Hepatotoxicity [10])

COc1ccc(C[C@@H]2c3cc(OC)c(OC)cc3CC[N@+]2(C)CCC(=O)OCCCCCOC(=O)CC[N@@+]2(C)CCc3cc(OC)c(OC)cc3[C@H]2Cc2ccc(OC)c(OC)c2)cc1OC
0: HepSE_bilirubinemia (Hepatotoxicity [1]) | HepSE_cholecystitis (Hepatotoxicity [2]) | HepSE_cholelithiasis (Hepatotoxicity [3]) | HepSE_cirrhosis (Hepatotoxicity [4]) | HepSE_elevated liver function tests (Hepatotoxicity [5]) | HepSE_hepatic failure (Hepatotoxicity [6]) | HepSE_hepatic necrosis (Hepatotoxicity [7]) | HepSE_hepatitis (Hepatotoxicity [8]) | HepSE_hepatomegaly (Hepatotoxicity [9]) | HepSE_jaundice (Hepatotoxicity [10]) | HepSE_liver disease (Hepatotoxicity [11]) | HepSE_liver fatty (Hepatotoxicity [12]) | HepSE_liver function tests abnormal (Hepatotoxicity [13]) | HepSE_Combined Scores (Hepatotoxicity [14])

CNS(=O)(=O)CCc1ccc2[nH]cc(C3CCN(C)CC3)c2c1
0: HepSE_bilirubinemia (Hepatotoxicity [1]) | HepSE_cholecystitis (Hepatotoxicity [2]) | HepSE_cholelithiasis (Hepatotoxicity [3]) | HepSE_cirrhosis (Hepatotoxicity [4]) | HepSE_elevated liver function tests (Hepatotoxicity [5]) | HepSE_hepatic failure (Hepatotoxicity [6]) | HepSE_hepatic necrosis (Hepatotoxicity [7]) | HepSE_hepatitis (Hepatotoxicity [8]) | HepSE_hepatomegaly (Hepatotoxicity [9]) | HepSE_jaundice (Hepatotoxicity [10]) | HepSE_liver disease (Hepatotoxicity [11]) | HepSE_liver fatty (Hepatotoxicity [12])
1: HepSE_liver function tests abnormal (Hepatotoxicity [13]) | HepSE_Combined Scores (Hepatotoxicity [14])

CC[C@@H](C(N)=O)N1CCCC1=O
0: HepSE_bilirubinemia (Hepatotoxicity [1]) | HepSE_cholecystitis (Hepatotoxicity [2]) | HepSE_cholelithiasis (Hepatotoxicity [3]) | HepSE_cirrhosis (Hepatotoxicity [4]) | HepSE_elevated liver function tests (Hepatotoxicity [5]) | HepSE_hepatic necrosis (Hepatotoxicity [7]) | HepSE_hepatomegaly (Hepatotoxicity [9]) | HepSE_jaundice (Hepatotoxicity [10]) | HepSE_liver disease (Hepatotoxicity [11]) | HepSE_liver fatty (Hepatotoxicity [12]) | HepSE_liver function tests abnormal (Hepatotoxicity [13])
2: HepSE_Combined Scores (Hepatotoxicity [14])
1: HepSE_hepatic failure (Hepatotoxicity [6]) | HepSE_hepatitis (Hepatotoxicity [8])

COc1ccc(CC2c3cc(OC)c(OC)cc3CC[N+]2(C)CCC(=O)OCCCCCOC(=O)CC[N+]2(C)CCc3cc(OC)c(OC)cc3C2Cc2ccc(OC)c(OC)c2)cc1OC (configuration not stated)
0: HepSE_bilirubinemia (Hepatotoxicity [1]) | HepSE_cholecystitis (Hepatotoxicity [2]) | HepSE_cholelithiasis (Hepatotoxicity [3]) | HepSE_cirrhosis (Hepatotoxicity [4]) | HepSE_elevated liver function tests (Hepatotoxicity [5]) | HepSE_hepatic failure (Hepatotoxicity [6]) | HepSE_hepatic necrosis (Hepatotoxicity [7]) | HepSE_hepatitis (Hepatotoxicity [8]) | HepSE_hepatomegaly (Hepatotoxicity [9]) | HepSE_jaundice (Hepatotoxicity [10]) | HepSE_liver disease (Hepatotoxicity [11]) | HepSE_liver fatty (Hepatotoxicity [12]) | HepSE_liver function tests abnormal (Hepatotoxicity [13]) | HepSE_Combined Scores (Hepatotoxicity [14])

CCCc1nc(C)c2c(=O)[nH]c(-c3cc(S(=O)(=O)N4CCN(CC)CC4)ccc3OCC)nn12
1: HepSE_liver function tests abnormal (Hepatotoxicity [13]) | HepSE_Combined Scores (Hepatotoxicity [14])
0: HepSE_bilirubinemia (Hepatotoxicity [1]) | HepSE_cholecystitis (Hepatotoxicity [2]) | HepSE_cholelithiasis (Hepatotoxicity [3]) | HepSE_cirrhosis (Hepatotoxicity [4]) | HepSE_elevated liver function tests (Hepatotoxicity [5]) | HepSE_hepatic failure (Hepatotoxicity [6]) | HepSE_hepatic necrosis (Hepatotoxicity [7]) | HepSE_hepatitis (Hepatotoxicity [8]) | HepSE_hepatomegaly (Hepatotoxicity [9]) | HepSE_jaundice (Hepatotoxicity [10]) | HepSE_liver disease (Hepatotoxicity [11]) | HepSE_liver fatty (Hepatotoxicity [12])

CCOC(=O)[C@H](CCc1ccccc1)N[C@@H](C)C(=O)N1Cc2ccccc2C[C@H]1C(=O)O
0: HepSE_bilirubinemia (Hepatotoxicity [1]) | HepSE_cholecystitis (Hepatotoxicity [2]) | HepSE_cholelithiasis (Hepatotoxicity [3]) | HepSE_cirrhosis (Hepatotoxicity [4]) | HepSE_elevated liver function tests (Hepatotoxicity [5]) | HepSE_hepatic necrosis (Hepatotoxicity [7]) | HepSE_hepatomegaly (Hepatotoxicity [9]) | HepSE_jaundice (Hepatotoxicity [10]) | HepSE_liver disease (Hepatotoxicity [11]) | HepSE_liver fatty (Hepatotoxicity [12])
3: HepSE_Combined Scores (Hepatotoxicity [14])
1: HepSE_hepatic failure (Hepatotoxicity [6]) | HepSE_hepatitis (Hepatotoxicity [8]) | HepSE_liver function tests abnormal (Hepatotoxicity [13])

CC(N)Cc1c[nH]c2ccccc12 (configuration not stated)
0: HepSE_bilirubinemia (Hepatotoxicity [1]) | HepSE_cholecystitis (Hepatotoxicity [2]) | HepSE_cholelithiasis (Hepatotoxicity [3]) | HepSE_cirrhosis (Hepatotoxicity [4]) | HepSE_elevated liver function tests (Hepatotoxicity [5]) | HepSE_hepatic failure (Hepatotoxicity [6]) | HepSE_hepatic necrosis (Hepatotoxicity [7]) | HepSE_hepatitis (Hepatotoxicity [8]) | HepSE_hepatomegaly (Hepatotoxicity [9]) | HepSE_jaundice (Hepatotoxicity [10]) | HepSE_liver disease (Hepatotoxicity [11]) | HepSE_liver fatty (Hepatotoxicity [12]) | HepSE_liver function tests abnormal (Hepatotoxicity [13]) | HepSE_Combined Scores (Hepatotoxicity [14])

[Ca+2].[H-].[H-]
0: HepSE_bilirubinemia (Hepatotoxicity [1]) | HepSE_cholecystitis (Hepatotoxicity [2]) | HepSE_cholelithiasis (Hepatotoxicity [3]) | HepSE_cirrhosis (Hepatotoxicity [4]) | HepSE_elevated liver function tests (Hepatotoxicity [5]) | HepSE_hepatic failure (Hepatotoxicity [6]) | HepSE_hepatic necrosis (Hepatotoxicity [7]) | HepSE_hepatitis (Hepatotoxicity [8]) | HepSE_hepatomegaly (Hepatotoxicity [9]) | HepSE_jaundice (Hepatotoxicity [10]) | HepSE_liver disease (Hepatotoxicity [11]) | HepSE_liver fatty (Hepatotoxicity [12]) | HepSE_liver function tests abnormal (Hepatotoxicity [13]) | HepSE_Combined Scores (Hepatotoxicity [14])

C=C1[C@H](CO)[C@@H](O)C[C@@H]1n1cnc2c(=O)[nH]c(N)nc21.O
0: HepSE_bilirubinemia (Hepatotoxicity [1]) | HepSE_cholecystitis (Hepatotoxicity [2]) | HepSE_cholelithiasis (Hepatotoxicity [3]) | HepSE_cirrhosis (Hepatotoxicity [4]) | HepSE_elevated liver function tests (Hepatotoxicity [5]) | HepSE_hepatic failure (Hepatotoxicity [6]) | HepSE_hepatic necrosis (Hepatotoxicity [7]) | HepSE_jaundice (Hepatotoxicity [10]) | HepSE_liver disease (Hepatotoxicity [11]) | HepSE_liver fatty (Hepatotoxicity [12]) | HepSE_liver function tests abnormal (Hepatotoxicity [13])
2: HepSE_Combined Scores (Hepatotoxicity [14])
1: HepSE_hepatitis (Hepatotoxicity [8]) | HepSE_hepatomegaly (Hepatotoxicity [9])

Cc1c(O)cccc1C(=O)N[C@@H](CSc1ccccc1)[C@H](O)CN1C[C@H]2CCCC[C@H]2C[C@H]1C(=O)NC(C)(C)C
1: HepSE_bilirubinemia (Hepatotoxicity [1]) | HepSE_hepatitis (Hepatotoxicity [8]) | HepSE_jaundice (Hepatotoxicity [10]) | HepSE_liver function tests abnormal (Hepatotoxicity [13])
4: HepSE_Combined Scores (Hepatotoxicity [14])
0: HepSE_cholecystitis (Hepatotoxicity [2]) | HepSE_cholelithiasis (Hepatotoxicity [3]) | HepSE_cirrhosis (Hepatotoxicity [4]) | HepSE_elevated liver function tests (Hepatotoxicity [5]) | HepSE_hepatic failure (Hepatotoxicity [6]) | HepSE_hepatic necrosis (Hepatotoxicity [7]) | HepSE_hepatomegaly (Hepatotoxicity [9]) | HepSE_liver disease (Hepatotoxicity [11]) | HepSE_liver fatty (Hepatotoxicity [12])

CCCN(CCc1ccsc1)C1CCc2c(O)cccc2C1 (configuration not stated)
0: HepSE_bilirubinemia (Hepatotoxicity [1]) | HepSE_cholecystitis (Hepatotoxicity [2]) | HepSE_cholelithiasis (Hepatotoxicity [3]) | HepSE_cirrhosis (Hepatotoxicity [4]) | HepSE_elevated liver function tests (Hepatotoxicity [5]) | HepSE_hepatic failure (Hepatotoxicity [6]) | HepSE_hepatic necrosis (Hepatotoxicity [7]) | HepSE_hepatitis (Hepatotoxicity [8]) | HepSE_hepatomegaly (Hepatotoxicity [9]) | HepSE_jaundice (Hepatotoxicity [10]) | HepSE_liver disease (Hepatotoxicity [11]) | HepSE_liver fatty (Hepatotoxicity [12]) | HepSE_liver function tests abnormal (Hepatotoxicity [13]) | HepSE_Combined Scores (Hepatotoxicity [14])

C=CC1=C(C(=O)O)N2C(=O)[C@@H](NC(=O)/C(=N\O)c3csc(N)n3)[C@H]2SC1
0: HepSE_bilirubinemia (Hepatotoxicity [1]) | HepSE_cholecystitis (Hepatotoxicity [2]) | HepSE_cholelithiasis (Hepatotoxicity [3]) | HepSE_cirrhosis (Hepatotoxicity [4]) | HepSE_elevated liver function tests (Hepatotoxicity [5]) | HepSE_hepatic necrosis (Hepatotoxicity [7]) | HepSE_hepatomegaly (Hepatotoxicity [9]) | HepSE_liver disease (Hepatotoxicity [11]) | HepSE_liver fatty (Hepatotoxicity [12]) | HepSE_liver function tests abnormal (Hepatotoxicity [13])
3: HepSE_Combined Scores (Hepatotoxicity [14])
1: HepSE_hepatic failure (Hepatotoxicity [6]) | HepSE_hepatitis (Hepatotoxicity [8]) | HepSE_jaundice (Hepatotoxicity [10])
